The target in the assay is T1, recombinant LRRK2 kinase (Homo sapiens, UniProt Q5S007).
T1 construct: purchased Signal Chem, Richmond, BC, Canada
The assay can be described thus: LRRK2 kinase inhibition (Kinase-Glo luminescence). It is filed as biochemical. Conditions: IC50 grade; 25 μmol/L ATP, LRRKtide, 30° C. 2 hours; read-out: Enzyme activity LRRK2. Here is the method: Upon completion of the reaction, an equal amount of Kinase-Glo (Promega, Madison, Wis.) solution was added thereto, followed by reaction for 40 minutes. A detection solution was added thereto, followed by further reaction at room temperature for 30 minutes. Then, IC50 of kinase was calculated by measuring the amount of luciferase using a microplate ELISA reader (Bio-Tek).

T1 sequence (Q5S007 whole entry): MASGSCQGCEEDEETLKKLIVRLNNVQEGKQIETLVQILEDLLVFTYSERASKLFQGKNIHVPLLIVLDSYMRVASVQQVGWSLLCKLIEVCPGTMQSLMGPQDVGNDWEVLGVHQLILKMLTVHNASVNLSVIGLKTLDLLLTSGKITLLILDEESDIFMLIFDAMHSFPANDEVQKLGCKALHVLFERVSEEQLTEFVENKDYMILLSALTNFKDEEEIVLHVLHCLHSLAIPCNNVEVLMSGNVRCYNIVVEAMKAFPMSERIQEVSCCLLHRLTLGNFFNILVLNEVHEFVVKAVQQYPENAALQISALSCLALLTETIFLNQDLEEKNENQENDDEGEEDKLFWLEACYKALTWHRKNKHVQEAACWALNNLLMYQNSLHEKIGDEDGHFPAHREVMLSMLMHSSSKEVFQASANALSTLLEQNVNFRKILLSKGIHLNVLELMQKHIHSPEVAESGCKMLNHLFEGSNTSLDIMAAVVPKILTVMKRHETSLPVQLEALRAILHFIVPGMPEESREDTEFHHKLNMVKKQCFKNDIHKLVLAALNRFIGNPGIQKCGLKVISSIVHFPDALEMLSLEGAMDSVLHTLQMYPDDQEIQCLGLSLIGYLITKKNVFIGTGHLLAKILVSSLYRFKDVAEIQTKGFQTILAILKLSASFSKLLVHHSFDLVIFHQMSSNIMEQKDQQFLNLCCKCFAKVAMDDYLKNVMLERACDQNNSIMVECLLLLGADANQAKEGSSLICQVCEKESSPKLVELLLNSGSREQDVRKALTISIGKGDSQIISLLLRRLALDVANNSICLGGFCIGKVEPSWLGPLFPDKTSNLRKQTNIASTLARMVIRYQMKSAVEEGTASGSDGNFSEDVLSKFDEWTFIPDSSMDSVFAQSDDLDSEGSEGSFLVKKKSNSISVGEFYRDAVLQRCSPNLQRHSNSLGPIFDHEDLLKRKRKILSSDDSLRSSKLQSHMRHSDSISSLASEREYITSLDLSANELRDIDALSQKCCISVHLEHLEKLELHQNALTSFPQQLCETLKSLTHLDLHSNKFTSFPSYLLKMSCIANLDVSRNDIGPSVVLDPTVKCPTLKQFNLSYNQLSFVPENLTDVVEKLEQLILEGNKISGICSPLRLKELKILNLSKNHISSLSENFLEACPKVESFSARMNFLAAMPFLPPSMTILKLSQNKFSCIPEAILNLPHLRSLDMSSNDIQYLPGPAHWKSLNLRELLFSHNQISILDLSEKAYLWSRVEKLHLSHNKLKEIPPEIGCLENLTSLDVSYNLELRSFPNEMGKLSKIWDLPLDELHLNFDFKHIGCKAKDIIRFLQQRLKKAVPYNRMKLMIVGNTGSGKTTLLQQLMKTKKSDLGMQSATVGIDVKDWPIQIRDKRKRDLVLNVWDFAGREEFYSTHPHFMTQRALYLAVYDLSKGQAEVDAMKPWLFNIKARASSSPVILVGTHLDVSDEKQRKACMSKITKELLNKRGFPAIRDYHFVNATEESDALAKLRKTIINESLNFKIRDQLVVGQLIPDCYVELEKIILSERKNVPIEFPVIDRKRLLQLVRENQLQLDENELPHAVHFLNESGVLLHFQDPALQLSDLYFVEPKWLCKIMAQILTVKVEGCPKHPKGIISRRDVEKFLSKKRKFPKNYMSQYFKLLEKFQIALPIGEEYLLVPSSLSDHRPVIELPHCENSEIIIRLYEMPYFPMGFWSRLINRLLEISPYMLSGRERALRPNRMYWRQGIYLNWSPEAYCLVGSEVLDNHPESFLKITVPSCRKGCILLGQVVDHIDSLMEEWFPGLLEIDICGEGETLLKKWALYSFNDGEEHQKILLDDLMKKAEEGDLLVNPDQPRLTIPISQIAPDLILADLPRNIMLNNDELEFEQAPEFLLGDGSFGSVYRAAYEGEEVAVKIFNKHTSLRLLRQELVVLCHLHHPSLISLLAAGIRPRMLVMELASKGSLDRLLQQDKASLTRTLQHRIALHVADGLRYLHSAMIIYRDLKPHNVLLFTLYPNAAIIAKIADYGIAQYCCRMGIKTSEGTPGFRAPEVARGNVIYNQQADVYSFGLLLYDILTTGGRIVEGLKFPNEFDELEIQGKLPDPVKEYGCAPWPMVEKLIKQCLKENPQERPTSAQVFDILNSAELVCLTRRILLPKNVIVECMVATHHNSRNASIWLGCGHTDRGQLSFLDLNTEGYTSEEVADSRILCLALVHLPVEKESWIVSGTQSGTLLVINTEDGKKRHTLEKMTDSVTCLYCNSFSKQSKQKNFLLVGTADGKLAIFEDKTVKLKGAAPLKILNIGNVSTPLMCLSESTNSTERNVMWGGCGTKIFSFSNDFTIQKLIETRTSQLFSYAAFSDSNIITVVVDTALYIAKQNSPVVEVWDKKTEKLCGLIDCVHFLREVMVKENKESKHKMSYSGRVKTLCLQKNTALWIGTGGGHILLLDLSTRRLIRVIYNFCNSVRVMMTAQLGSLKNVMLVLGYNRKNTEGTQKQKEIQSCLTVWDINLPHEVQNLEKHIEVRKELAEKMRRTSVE

On to `COc1cc(C(=O)N2CCOCC2)ccc1Nc1nc(OC2CCOC2)c2c(C(F)(F)F)c[nH]c2n1` (stereo not drawn) [Example 124, (3-methoxy-4-((4-((tetrahydrofuran-3-yl)oxy)-5-(trifluoromethyl)-7H-pyrrolo[2,3-d]pyrimidine-2-yl)amino)phenyl)(morpholino)methanone], for which the IC50 was 10 to 100 nM. Then `CCNc1nc(Nc2cc(F)c(C(=O)N3CCC(N4CCOCC4)CC3)cc2OC)nc2[nH]cc(C#N)c12` [Example 7, 4-(ethylamino)-2-((5-fluoro-2-methoxy-4-(4-morpholinopiperidine-1-carbonyl)phenyl)amino)-7H-pyrrolo[2,3-d]pyrimidine-5-carbonitrile], with less than 10 nM; and `COc1cc(C(=O)N2CCOCC2)ccc1Nc1nc(OC2CCOCC2)c2c(C#N)c[nH]c2n1` [Example 84, 2-((2-methoxy-4-(morpholine-4-carbonyl)phenyl)amino)-4-((tetrahydro-2H-pyran-4-yl)oxy)-7H-pyrrolo[2,3-d]pyrimidine-5-carbonitrile], with less than 10 nM. Next, `CNc1nc(Nc2cc(F)c(C(=O)N3CCOCC3)cc2OC)nc2[nH]cc(C#N)c12` [Example 10, 2-((5-fluoro-2-methoxy-4-(morpholine-4-carbonyl)phenyl)amino)-4-(methylamino)-7H-pyrrolo[2,3-d]pyrimidine-5-carbonitrile]: less than 10 nM; `CNc1nc(Nc2cnn(CCOC)c2Cl)nc2[nH]cc(C#N)c12` [Example 59, 2-((5-chloro-1-(2-methoxyethyl)-1H-pyrazole-4-yl)amino)-4-(methylamino)-7H-pyrrolo[2,3-d]pyrimidine-5-carbonitrile]: less than 10 nM. Then `CNc1nc(Nc2cn(C(C)C)nc2C)nc2[nH]cc(C#N)c12` [Example 30, 6-((1-isopropyl-3-methyl-1H-pyrazole-4-yl)amino)-4-(methylamino)-1H-pyrrolo[2,3-b]pyrimidine-3-carbonitrile], with 10 to 100 nM; and `CC1(Oc2nc(Nc3cnn([C@H]4CCN(C5COC5)C[C@@H]4F)c3Cl)nc3[nH]cc(C#N)c23)CC1` [Example 96, 2-((5-chloro-1-((3S,4S)-3-fluoro-1-(oxetane-3-yl)piperidine-4-yl)-1H-pyrazole-4-yl)amino)(1-methylcyclopropoxy)-7H-pyrrolo[2,3-]pyrimidine-5-carbonitrile], with less than 10 nM; and `CCNc1nc(Nc2ccc(C(=O)NC3CCN(C4COC4)CC3)cc2OC)nc2[nH]cc(C#N)c12` [Example 60, 4-((5-cyano-4-(ethylamino)-7H-pyrrolo[2,3-d]pyrimidine-2-yl)amino)-3-methoxy-N-(1-(oxetane-3-yl)piperidine-4-yl)benzylamide], with 10 to 100 nM. Consider `CCNc1nc(Nc2ccc(C(=O)N3CCO[C@@H](C)C3)cc2OC)nc2[nH]cc(C#N)c12` [Example 26, (S)-4-(ethylamino)-2-((2-methoxy-4-(2-methylmorpholine-4-carbonyl)phenyl)amino)-7H-pyrrolo[2,3-d]pyrimidine-5-carbonitrile], for which the IC50 is less than 10 nM. `CCNc1nc(Nc2cc(F)c(C(=O)NC3CCN(C)CC3)cc2OC)nc2[nH]cc(C#N)c12` [Example 66, 4-((5-cyano-4-(ethylamino)-7H-pyrrolo[2,3-d]pyrimidine-2-yl)amino)-2-fluoro-5-methoxy-N-(1-methylpiperidine-4-yl)benzamide]: the IC50 is 10 to 100 nM. Turning to `Cc1nn(C)cc1Nc1nc(NC2(C)CC2)c2c(C#N)c[nH]c2n1` [Example 40, 2-((1,3-dimethyl-1H-pyrazole-4-yl)amino)-4-((1-methylcyclopropyl)amino)-7H-pyrrolo[2,3-d]pyrimidine-5-carbonitrile], the IC50 was less than 10 nM. Next, `COc1cc(C(=O)N2CCC(N3CCOCC3)CC2)c(F)cc1Nc1nc(O[C@H]2CCOC2)c2c(C#N)c[nH]c2n1` [Example 93, (S)-2-((5-fluoro-2-methoxy-4-(4-morpholinopiperidine-1-carbonyl)phenyl)amino)-4-((tetrahydrofuran-3-yl)oxy)-7H-pyrrolo[2,3-d]pyrimidine-5-carbonitrile]: less than 10 nM. For the compound `CNc1nc(Nc2cc(F)c(C(=O)N3CCC(N4CCOCC4)CC3)cc2OC)nc2[nH]cc(C#N)c12` [Example 11, 2-((5-fluoro-2-methoxy-4-(4-morpholinopiperidine-1-carbonyl)phenyl)amino)-4-(methylamino)-7H-pyrrolo[2,3-d]pyrimidine-5-carbonitrile], the IC50 was less than 10 nM. On to `CNc1nc(Nc2ccc(C(=O)N3CCC(N4CCOCC4)CC3)cc2OC)nc2[nH]cc(C#N)c12` [Example 9, 2-((2-methoxy-4-(4-morpholinylpiperidine-1-carbonyl)phenyl)amino)-4-(methylamino)-7H-pyrrolo[2,3-d]pyrimidine-5-carbonitrile], for which the IC50 was less than 10 nM. For `COc1cc(C(=O)N2CCOCC2)ccc1Nc1nc(OC2(C)CC2)c2c(C#N)c[nH]c2n1` [Example 95, 2-((2-methoxy-4-(morpholine-4-carbonyl)phenyl)amino)-4-(1-methylcyclopropoxy)-7H-pyrrolo[2,3-d]pyrimidine-5-carbonitrile], the IC50 is less than 10 nM. For the compound `CCNc1nc(Nc2ccc(C(=O)N3CCOCC3)cc2OC)nc2[nH]cc(C(F)(F)F)c12` [Example 105, (4-((4-(ethylamino)-5-(trifluoromethyl)-7H-pyrrolo[2,3-d]pyrimidine-2-yl)amino)-3-methoxyphenyl)(morpholino)methanone], the IC50 fell in the range of 10 to 100 nM. As to `CNc1nc(Nc2cn(C(C)(C)C#N)nc2Cl)nc2[nH]cc(C#N)c12` [Example 71, 2-((3-chloro-1-(2-cyanopropane-2-yl)-1H-pyrazole-4-yl)amino)-4-(methylamino)-7H-pyrrolo[2,3-d]pyrimidine-5-carbonitrile], the IC50 was less than 10 nM.

With `CCNc1nc(Nc2cnn([C@H]3CCN(C4COC4)C[C@@H]3F)c2Cl)nc2[nH]cc(C#N)c12` [Example 51, 2-((5-chloro-1-((3S,4S)-3-fluoro-1-(oxetane-3-yl)piperidine-4-yl)-1H-pyrazole-4-yl)amino)-4-(ethylamino)-7H-pyrrolo[2,3-d]pyrimidine-5-carbonitrile], the IC50 is less than 10 nM. Next, `COc1cc(C(=O)N2CCOCC2)ccc1Nc1nc(NC2CC2)c2c(C#N)c[nH]c2n1` [Example 16, 4-(cyclopropylamino)-2-((2-methoxy-4-(morpholine-4-carbonyl)phenyl)amino)-7H-pyrrolo[2,3-d]pyrimidine-5-carbonitrile]: less than 10 nM.

With `CCNc1nc(Nc2ncc(C(=O)N3CCOCC3)cc2OC)nc2[nH]cc(C#N)c12` [Example 48, 4-(ethylamino)-2-((3-methoxy-5-(morpholine-4-carbonyl)pyridine-2-yl)amino)-7H-pyrrolo[2,3-d]pyrimidine-5-carbonitrile], the IC50 was more than 100 nM. Consider `CCCNc1nc(Nc2cc(F)c(C(=O)N3CCC(N4CCOCC4)CC3)cc2OC)nc2[nH]cc(C#N)c12` [Example 15, 2-((5-fluoro-2-methoxy-4-(4-morpholinopiperidine-1-carbonyl)phenyl)amino)-4-(propylamino)-7H-pyrrolo[2,3-d]pyrimidine-5-carbonitrile], for which the IC50 was less than 10 nM. With `Cc1c(Nc2nc(NC3(C)CC3)c3c(C#N)c[nH]c3n2)cnn1C(C)C` [Example 38, 2-((1-isopropyl-5-methyl-1H-pyrazole-4-yl)amino)-4-((1-methylcyclopropyl)amino)-7H-pyrrolo[2,3-d]pyrimidine-5-carbonitrile], the IC50 was less than 10 nM. Next, `CCNc1nc(Nc2cnn([C@H]3CCN(C4COC4)C[C@@H]3F)c2)nc2[nH]cc(C#N)c12` [Example 53]: less than 10 nM.

With `CCNc1nc(Nc2cn(C(C)(C)C#N)nc2Cl)nc2[nH]cc(C#N)c12` [Example 72, 2-((3-chloro-1-(2-cyanopropane-2-yl)-1H-pyrazole-4-yl)amino)-4-(ethylamino)-7H-pyrrolo[2,3-d]pyrimidine-5-carbonitrile], the IC50 was less than 10 nM.

With `CNc1nc(Nc2cn(C(C)(C)C#N)nc2C)nc2[nH]cc(C#N)c12` [Example 47, 2-((1-(2-cyanopropane-2-yl)-3-methyl-1H-pyrazole-4-yl)amino)-4-(methylamino)-7H-pyrrolo[2,3-d]pyrimidine-5-carbonitrile], the IC50 is less than 10 nM. For `F[C@H]1CN(C2COC2)CC[C@@H]1n1ncc(Nc2nc(NC3CC3)c3c(C(F)(F)F)c[nH]c3n2)c1Cl` [Example 117, N^2-(5-chloro-1-((3S,4S)-3-fluoro-1-(oxetane-3-yl)piperidine-4-yl)-1H-pyrazole-4-yl)-N^4-cyclopropyl-5-(trifluoromethyl)-7H-pyrrolo[2,3-d]pyrimidine-2,4-diamine], the IC50 was in the range of 10 to 100 nM. As to `COc1cc(C(=O)NC2CCN(C3COC3)CC2)c(F)cc1Nc1nc(NC2(C)CC2)c2c(C#N)c[nH]c2n1` [Example 81, 4-((5-cyano-4-((1-methylcyclopropyl)amino)-7H-pyrrolo[2,3-]pyrimidine-2-yl)amino)-2-fluoro-5-methoxy-N-(1-(oxetane-3-yl)piperidine-4-yl)benzamide], the IC50 was 10 to 100 nM.

As for `CCNc1nc(Nc2ccc(C(=O)N3CCC(N4CCN(C)CC4)CC3)cc2OC)nc2[nH]cc(C(F)(F)F)c12` [Example 106], the IC50 was less than 10 nM. Then `COc1cc(C(=O)N2C[C@@H](C)O[C@@H](C)C2)ccc1Nc1nc(OC2(C)CC2)c2c(C#N)c[nH]c2n1` [Example 100, 2-((4-((2R,6S)-2,6-dimethylmorpholine-4-carbonyl)-2-methoxyphenyl)amino)-4-(1-methylcyclopropoxy)-7H-pyrrolo[2,3-d]pyrimidine-5-carbonitrile], with 10 to 100 nM; and `CCNc1nc(Nc2cnn([C@H]3CCN(C4COC4)C[C@@H]3F)c2Cl)nc2[nH]cc(C(F)(F)F)c12` [Example 102, N^2-(5-chloro-1-((3S,4S)-3-fluoro-1-(oxetane-3-yl)piperidine-4-yl)-1H-pyrazole-4-yl)-N^4-ethyl-5-(trifluoromethyl)-7H-pyrrolo[2,3-d]pyrimidine-2,4-diamine], with 10 to 100 nM.
